Assay results: patent publication US11065211B2, “Isoxylitones mediated neurogenesis” (priority 2018, dated 2021)

Experiments:
Format in all cases: cell-based, rat
hippocampal cells = experiment: AlamarBlue proliferation assay; settings: 24 h treatment, vs control, FIG. 3
Text: (§1) AlamarBlue (AB), a water-soluble dye having resazurin salt was used to evaluate the effect of isoxylitones on the proliferation of the cultured cells. AB measures mitochondrial reductase activity of live cells. The resazurin has ability to enter the cytosol of viable cell and converted to the reduced fluorescent form resorufin by mitochondrial enzyme activity by accepting electrons from NADPH, FADH, FMNH, NADH as well as from the cytochromes. The redox reaction is accompanied by a change in color of the culture medium from blue to fluorescent red (Al-Nasiry, Geusens, Hanssens, Luyten, Pijnenborg, 2007). The amount of fluorescence produced is proportional to the number of living cells (Al-Nasiry, Geusens, Hanssens, Luyten, Pijnenborg, 2007). The cultured hippocampal, cortical and co-cultures were plated in 96-well plates (10,000 cells/well) and incubated for 24 hrs at 37° C. and 5% CO2. […] After incubation, the fluorescence intensity in each well was recorded at an excitation wavelength of 570 nm and an emission wavelength of 600 nm. The rate of cell proliferation was expressed as the relative fluorescence intensity. […] The blank media fluorescence measurement was subtracted from fluorescence measurements of cells from the same run.
(§2) Formula used to calculate the percentage reduction of AB using absorbance readings: […]

cortical cells = experiment: AlamarBlue proliferation assay; settings: 24 h treatment, vs control, FIG. 3
Text: as §1, §2

[1] = system: cortical cells and hippocampal cells; experiment: MTT assay, in vitro screening of compounds for cell proliferation activity; settings: 24 hrs treatment
Text: The Tetrazolium MTT [3-(4, 5-dimethyl thiazol-2-yl)-2,5-diphenyl tetrazolium bromide] Assay: MTT assay was used to screen various compounds for their proliferating effect on cortical cells and hippocampal cells. The principle of MTT test is based on the ability of live cells to form insoluble purple formazan product from the breakdown of the water soluble yellow tetrazolium salt by mitochondrial enzyme succinate dehydrogenase (Mosmann, 1983). The resulting intracellular purple formazan can quantify by spectrophotometric means. The MTT Cell Proliferation Assay measures the cell proliferation rate and conversely, when metabolic events lead to apoptosis or necrosis, the reduction in cell viability.
The density of the cortical and hippocampal cells was adjusted at the density 2×10^5 cells/mL in complete DMEM medium (5% FBS). The cells (5000/well) were then plated in 96-wells plate and incubated for 24 hrs at 37° C. with 5% CO2. Following 24 hrs incubation, media was removed and 100 μL of each test compounds in DMEM media (5% FBS) were added. […] The culture plates were re-incubated for 24 hrs at 37° C. in 5% CO2. Cells treated with 0.1% DMSO in complete media (5% FBS) were used as vehicle controls. […] The absorbance was read at 495 nm on spectrophotometer. […] The percent rate of proliferation was calculated using the following formula, % rate of proliferation={(At−Ab)/(Ac−Ab)}×100

In the case of `CC(=O)C=C1C=C(C)CC(C)(C)C1` (mixture of isomers) [isoxylitones], the “proliferation (Alamar blue)” value (hippocampal cells) is reported as “growth supportive and proliferative effect”, the “proliferation (Alamar blue)” value (cortical cells) is reported as “growth supportive and proliferative effect” and the “activity on the cell proliferation (MTT screening)” value [1] is reported as “significant potent activity”.
